Source: patent publication EP0345931A1 (SCHERING CORPORATION, priority 1988, dated 1989)
Where two headings read alike, the source gives them in different places.

Tests used:
[1] = tested on: PAF-induced lethality; test: PAF-induced lethality in mice; assay type: in vivo, Swiss-Webster female CFW mice; settings: for ED50: Mus musculus, read-out: ED₅₀; for % Lethality: death recorded 1 hour after challenge; for effect on PAF-induced mortality: result in words
Procedure: Swiss-Webster female CFW mice (from Charles River), 5-10 per group, were injected through the tail vein with PAF in 0.5 ml of saline containing bovine serum albumin, and death was recorded.

[2] = tested on: ovalbumin-induced lethality (anaphylactic death); test: Anaphylactic death in ovalbumin-sensitized mice; assay type: in vivo, Swiss-Weber female CFW mice; settings: for protecting sensitized animals from death: i.p. at doses as high as 50 mg/kg (A) and 20 mg/kg (B); for protecting sensitized animals from death / protection of sensitized animals from death / protection against allergic death (anaphylactic shock) / ovalbumin-induced lethality: result in words; for protection of sensitized animals from death: antihistamines given individually; for protection against allergic death (anaphylactic shock) / ovalbumin-induced lethality: ovalbumin sensitized mice
Procedure: Swiss-Weber female CFW mice (20-30 g) from Charles River were acclimatized for 7-14 days. Animals were sensitized by injecting intraperitoneally 0.5 ml of saline containing 1.6 mg of ovalbumin adsorbed to 100 mg of Al(OH)₃ gel. Ten to 15 days after sensitization, the animals, at least six per group, were injected intraveneously through the tail vein with 1.6 mg of ovalbumin in 0.5 ml of saline. One hundred percent of the sensitized animals died within 10-20 minutes. Injection of ovalbumin into normal mice caused no lethality. […] The compositions (given in dosages listed in the left-hand column of Table II below) were administered intraperitoneally either individually or in indicated combinations 30 minutes before challenge with albumin to sensitized mice. Death was recorded 1 hour after the challenge.

[3] = tested on: PAF-induced bronchospasm; test: PAF-induced bronchospasm in guinea pigs; assay type: in vivo; settings: Cavia porcellus
[4] = tested on: PAF-acether; settings: BN 52021 2 mg/kg p.o. alone (non-active dose); cited from earlier work
[5] = compound 5 mg/kg i.p. 30 minutes before i.v. PAF (200 µg/kg)
[6] = compound 10 mg/kg i.p. 30 minutes before i.v. PAF (200 µg/kg)

SMILES	ED50 [1] [mg/kg]	% Lethality [1, 5] [%]	% Lethality [1, 6] [%]	protecting sensitized animals from death [2]	ED50 ([3]; iv, read-out: ED₅₀'s (i.v.)) [mg/kg]	effect on PAF-induced mortality [1]	protection of sensitized animals from death [2]	protection against allergic death (anaphylactic shock) / ovalbumin-induced lethality [2]	also measured
COc1cc([C@H]2CC[C@H](c3cc(OC)c(OC)c(OC)c3)O2)cc(OC)c1OC (relative stereo) [A, trans-2,5-bis(3,4,5-trimethoxyphenyl)tetrahydrofuran]	20	84	72	totally ineffective	0.4				% Lethality ([1]; compound 25 mg/kg i.p. 30 minutes before i.v. PAF (200 µg/kg)): 25%; % Lethality ([1]; compound 50 mg/kg i.p. 30 minutes before i.v. PAF (200 µg/kg)): 16%; % Survival ([2]; A 50 mg/kg i.p. 30 minutes before ovalbumin challenge, death recorded 1 hour after, pooled data from five experiments): 0%
Cc1nnc2n1-c1sc(CCC(=O)N3CCOCC3)cc1C(c1ccccc1Cl)=NC2 [B, 4-(2-chlorophenyl)-9-methyl-6H-thieno[3,2-f][1,2,4]triazolo[4,3-a][1,4]diazepine-2-propionic acid morpholide]	1.5	16	0	totally ineffective					% Lethality ([1]; compound 1 mg/kg i.p. 30 minutes before i.v. PAF (200 µg/kg)): 84%; % Lethality ([1]; compound 2 mg/kg i.p. 30 minutes before i.v. PAF (200 µg/kg)): 20%; % Survival ([2]; B 5 mg/kg i.p. 30 minutes before ovalbumin challenge, death recorded 1 hour after, pooled data from five experiments): 0%; ED50 ([3]; po, PAF-induced bronchospasm, read-out: ED₅₀ (p.o.)): 0.1 mg/kg
C[C@@H]1C(=O)O[C@H]2[C@@H](O)[C@@]34[C@H]5C[C@@H](C(C)(C)C)[C@]36[C@@H](OC(=O)[C@@H]6O)O[C@@]4(C(=O)O5)[C@@]12O [BN 52021, ginkgolide B]									change of bronchospasm [4]: -10%
CN1CCC(=C2c3ccccc3CC(=O)c3sccc32)CC1 [D, ketotifen]						Neither chlorpheniramine, clemastine nor ketotifen affected PAF-induced mortality	significant protection	only partial protection	% Lethality ([1]; compound 1.4 mg/kg i.p. 30 minutes before i.v. PAF (200 µg/kg)): 100%; % Survival ([2]; D 0.1 mg/kg i.p. 30 minutes before ovalbumin challenge, pooled data): 40%
CN1CCC[C@@H]1CCO[C@](C)(c1ccccc1)c1ccc(Cl)cc1 [E, clemastine]						Neither chlorpheniramine, clemastine nor ketotifen affected PAF-induced mortality	significant protection	only partial protection	% Survival ([2]; E 0.2 mg/kg i.p. 30 minutes before ovalbumin challenge, pooled data): 45%
Cc1nnc2n1-c1ccc(Cl)cc1C(c1ccccc1)=NC2 [alprazolam, 8-chloro-1-methyl-6-phenyl-4H-3-triazolo[4,3-a][1,2]-benzodiazepine]					3				
